In patent US8388982B2, “Photo-induced damage mitigating agents and preparation and methods of use thereof” (priority 2008, dated 2013):

What was measured:
[1] = Fluorescence correlation spectroscopy (FCS) triplet-state quenching; details: Alexa568 in low oxygen
Procedure: Fluorescence correlation spectroscopy (FCS) is a commonly used technique for experimentally characterizing the dynamics of fluorescent species that was initially introduced in the early 1970's (Magde, D., et al, (1972) Phys. Rev. Lett. 29: 705-708). In FCS, light is focused on a sample in a very small detection volume, and the measured fluorescence intensity fluctuations (due to diffusion, physical or chemical reactions, aggregation, etc.) are analyzed using the temporal autocorrelation. Further details are provided, e.g., in Ehrenberg, M. et al. (1974) Chem Phys 4: 390-401; Elson, E. L., et al. (1974) Biopolymers 13: 1-27; Magde, D., et al. (1974) Biopolymers 13: 29-61; Thompson, N. L. (1991) Topics in Fluorescence Spectroscopy Techniques, Vol. 1, ed. J. R. Lakowicz (New York: Plenum) pp. 337-378; Hess, et al. (2002) Biochemistry 41: 697; and Krichevsky, O., et al. (2002) Rep. Prog. Phys. 65: 251-297.
FCS experiments using the fluorophore Alexa568 in low oxygen were used to monitor the amount of the dye triplet state upon excitation over time as a measure of triplet-state quenching by 6-hydroxy-2,5,7,8-tetramethylchroman-2-carboxylic acid and derivatives thereof. Briefly, these experiments were performed on a confocal microscope setup (Olympus IX71 with water-immersion objective UPlanSApo, 60×) using a single line laser excitation (532 nm) at 0.4-mW intensity and two single photon avalanche detectors (SPAD detectors; Perkin Elmer, Waltham, Mass.). The FCS measurements were done in a reaction buffer containing 50 mM ACES, pH 7.1; 75 mM potassium acetate; and 5 mM DTT. A protocatechuic acid/protocatechuate-3,4-dioxygenase (PCA/PCD) oxygen scavenging system (see, e.g., Aitken, et al. (2007) “An Oxygen Scavenging System for Improvement of Dye Stability in Single-Molecule Fluorescence Experiments,” Biophys J. 94:1826-1835) was included, as well. Correlation curves were generated and recorded by a FLEX digital photon correlator (Correlator.com; Bridgewater, N.J.), and analyzed using Origin8.0 (OriginLabs; Northampton, Mass.).
In these experiments, the photo-induced damage mitigating ability of the preparation of photomodified 6-hydroxy-2,5,7,8-tetramethylchroman-2-carboxylic acid (described above), an aged 6-hydroxy-2,5,7,8-tetramethylchroman-2-carboxylic acid solution (stored at −20° C. for ˜1 year), a freshly prepared 6-hydroxy-2,5,7,8-tetramethylchroman-2-carboxylic acid solution (prepared according to manufacturer's instructions), and fresh preparations treated with various UV exposure regimes were compared. The results are plotted as autocorrelation curves in FIG. 9, and the amplitude of the “hump” at around one microsecond (0.001 millisecond (ms)) to a few microseconds indicates the triplet fraction of the dye, so the smaller the amplitude, the better the triplet quencher. […] The aged solution was the second best performer with an autocorrelation amplitude of ˜0.07 at a lag time of 0.001 ms.
The effectiveness of the photomodified solutions and the purified Fraction A and Fraction B as triplet-state quenchers/radical scavengers was tested by fluorescence correlation spectroscopy (FCS) using Alexa568 in low oxygen, as described above in Example 1. Two different intensity of excitation settings, 0.2 mW and 0.4 mW, were used for power dependence.

polymerase = assay: Sequencing-by-incorporation readlength; format: biochemical; details: for readlengths compared with 6-hydroxy-2,5,7,8-tetramethylchroman-2-carboxylic acid / no PIDMA: single-molecule, real-time sequencing reactions, FIG. 17; for sequencing readlength: purified fractions, Example 7
Excerpt: In yet another aspect, the present invention is directed to illuminated reactions for single molecule analysis, including sequencing of nucleic acids by observing incorporation of nucleotides into a nascent nucleic acid sequence during template-directed polymerase-based synthesis. Such methods, generally referred to as “sequencing-by-incorporation,” involve the observation of the addition of nucleotides or nucleotide analogs in a template-dependent fashion in order to determine the sequence of the template strand. See, e.g., U.S. Pat. Nos. 6,780,591, 7,037,687, 7,344,865, 7,302,146, and Eid, et al. (2009) Science 323:133-138, all of which are incorporated herein by reference in their entireties for all purposes. Processes for performing this detection include the use of fluorescently labeled nucleotide analogs within a confined observation region, e.g., within a nanoscale well and/or tethered, either directly or indirectly to a surface, By using excitation illumination (i.e., illumination of an appropriate wavelength to excite the fluorescent label and induce a detectable signal), the fluorescently labeled bases can be detected as they are incorporated into the nascent strand, thus identifying the nature of the incorporated base, and as a result, the complementary base in the template strand.
One particularly preferred aspect of the invention is in conjunction with the sequencing by incorporation of nucleic acids within an optical confinement, such as a zero mode waveguide, Such reactions involve observation of an extremely small reaction volume in which one or only a few polymerase enzymes and their fluorescent substrates may be present. Zero mode waveguides, and their use in sequencing applications are generally described in U.S. Pat. Nos. 6,917,726 and 7,033,764, and preferred methods of sequencing by incorporation are generally described in Published U.S. Patent Application No. 2003-0044781, the full disclosures of which are incorporated herein by reference in their entireties for all purposes, and in particular for their teachings regarding such sequencing applications and methods. Briefly, arrays of zero mode waveguides (“ZMWs”), configured in accordance with the present invention may be employed as optical confinements for single molecule analytical reactions, e.g., for nucleic acid (e.g., DNA, RNA) sequence determination. In particular, as noted above, these ZMWs provide extremely small observation volumes at or near the transparent substrate surface, also termed the “base” of the ZMW. A nucleic acid synthesis complex, e.g., template sequence, polymerase, and primer, which is immobilized at the base of the ZMW, may then be specifically observed during synthesis to monitor incorporation of nucleotides in a template dependent fashion, and thus provide the identity and sequences of nucleotides in the template strand. This identification is typically accomplished by providing detectable label groups, such as fluorescent labeling molecules, on the nucleotides. In some instances, the labeled nucleotides terminate primer extension, allowing a “one base at a time” interrogation of the complex. If, upon exposure to a given labeled base, a base is incorporated, its representative fluorescent signal may be detected at the base of the ZMW. If no signal is detected, then the base was not incorporated and the complex is interrogated with each of the other bases, in turn. Once a base is incorporated, the labeling group is removed, e.g., through the use of a photocleavable linking group, and where the label was not the terminating group, a terminator, upon the 3′ end of the incorporated nucleotide, may be removed prior to subsequent interrogation.
Experiments were performed to test the performance of pure 6-hydroxy-2,5,7,8-tetramethylchroman-2-carboxylic acid against various mixtures of 6-hydroxy-2,5,7,8-tetramethylchroman-2-carboxylic acid and derivatives thereof. […]

[2] = Saturation point of solutions for photomodification; format: physicochemical; details: solutions subjected to photomodification
Procedure: Of course, the amount of time for UV irradiation and room light exposure can be adjusted, as can the concentration of the 6-hydroxy-2,5,7,8-tetramethylchroman-2-carboxylic acid solution to be treated. For example, one to twenty-four hours of UV irradiation have been employed, as have 18 to 36 hours room light exposure. In general, and as shown in FIG. 9 described above, increasing UV exposures increase the ability of the mixture to effectively mitigate photo-induced damage, although there was no significant difference between the three, six, and 24 hour exposures (FIG. 9). Further, the solutions of 6-hydroxy-2,5,7,8-tetramethylchroman-2-carboxylic acid subjected to photomodification were typically of a concentration of 95-100 mM, which is near the saturation point for the compound. However, treatment of more or less concentrated solutions in contemplated and known chemical methods may be employed to increase the solubility of the compound prior to treatment.

[3] = Photolysis of Fraction A to Fraction B under UV, followed by reverse phase HPLC; format: physicochemical
Procedure: Fraction A was further converted to Fraction B by photolysis in a separate experiment. Specifically, purified Fraction A (reverse phase HPLC peak migration time of 9.791 minutes; FIG. 12A) was subjected to UV irradiation in water for one hour to produce Fraction B (reverse phase HPLC peak migration time of 14.891 minutes; FIG. 12B).

[4] = Brightness of Alexa A-647 dye; details: purified fractions
[5] = Example 3, FIG. 11A, 0.2 mW intensity of excitation
[6] = Example 3, FIG. 11B, 0.4 mW intensity of excitation

Cc1c(C)c2c(c(C)c1O)CCC(C)(C(=O)O)O2 (single isomer, unassigned) [6-hydroxy-2,5,7,8-tetramethylchroman-2-carboxylic acid, reference compound]
autocorrelation amplitude at a lag time of 0.001 ms ([1]; Example 1, FIG. 9, 532 nm, 0.4 mW, smaller amplitude = better triplet quencher): ~0.2
proportion of sequencing reactions that attained a readlength of at least one-fifth the maximum (polymerase; 0.5 mM, FIG. 13): about 10%
proportion of sequencing reactions that attained a readlength of at least one-tenth of the maximum readlength (polymerase; 0.5 mM, FIG. 13): 60%
sequencing reactions that attained a readlength of at least 30% of the maximum (polymerase; 0.5 mM, FIG. 13): very few
readlengths compared with 6-hydroxy-2,5,7,8-tetramethylchroman-2-carboxylic acid / no PIDMA (polymerase): surprisingly similar to having no PIDMA present at all
concentration near the saturation point [2]: 95000 to 100000 µM

CC1=C(C)C(=O)C(CCC(C)(O)C(=O)O)=C(C)C1=O (single isomer, unassigned) [Fraction A, 2-hydroxy-2-methyl-4-(2,4,5-trimethyl-3,6-dioxocyclohexa-1,4-dienyl)butanoic acid]
autocorrelation amplitude at a lag time of 0.001 ms [1, 5]: ~0.065
autocorrelation amplitude at a lag time of 0.001 ms [1, 6]: ~0.043
readlength compared with fresh 6-hydroxy-2,5,7,8-tetramethylchroman-2-carboxylic acid (polymerase; 0.05 mM purified Fraction A with 0.5 mM 6-hydroxy-2,5,7,8-tetramethylchroman-2-carboxylic acid, FIG. 13): much longer readlengths
readlength compared with fresh 6-hydroxy-2,5,7,8-tetramethylchroman-2-carboxylic acid (polymerase; 0.10 mM purified Fraction A with 0.5 mM 6-hydroxy-2,5,7,8-tetramethylchroman-2-carboxylic acid, FIG. 13): much longer readlengths
readlength compared with fresh 6-hydroxy-2,5,7,8-tetramethylchroman-2-carboxylic acid (polymerase; 0.25 mM purified Fraction A with 0.5 mM 6-hydroxy-2,5,7,8-tetramethylchroman-2-carboxylic acid, FIG. 13): much longer readlengths
readlengths compared with 6-hydroxy-2,5,7,8-tetramethylchroman-2-carboxylic acid / no PIDMA (polymerase): to a lesser extent
conversion from Fraction A to Fraction B ([3]; UV irradiation in water for one hour): 80%
time until conversion is essentially complete ([3]; under a portable UV lamp): about four
half-life ([3]; water under UV irradiation, UV irradiation in water, read-out: half-life of conversion to Fraction B): 26 min

CC(=O)CCC1=C(C)C(=O)C(C)=C(C)C1=O (single isomer, unassigned) [Fraction B, 2,3,5-trimethyl-6-(3-oxobutyl)-1,4-benzoquinone]
autocorrelation amplitude at a lag time of 0.001 ms [1, 5]: ~0.06
autocorrelation amplitude at a lag time of 0.001 ms [1, 6]: ~0.04

CC1=C(C)C(=O)C2(CCC(C)(C(=O)O)O2)C(C)(O)C1=O (single isomer, unassigned) [fraction 5, 10-hydroxy-2,7,8,10-tetramethyl-6,9-dioxo-1-oxaspiro[4.5]dec-7-ene-2-carboxylic acid]
sequencing readlength (polymerase): significantly increase sequencing readlength
readlengths compared with 6-hydroxy-2,5,7,8-tetramethylchroman-2-carboxylic acid / no PIDMA (polymerase): longer readlengths
brightness of Alexa A-647 dye [4]: increase the brightness

CC1=C(C)C(=O)C2(CCC(C)(C(=O)O)O2)C(C)(O)C1=O (single isomer, unassigned) [fraction 7, 10-hydroxy-2,7,8,10-tetramethyl-6,9-dioxo-1-oxaspiro[4.5]dec-7-ene-2-carboxylic acid]
sequencing readlength (polymerase): significantly increase sequencing readlength
readlengths compared with 6-hydroxy-2,5,7,8-tetramethylchroman-2-carboxylic acid / no PIDMA (polymerase): longer readlengths
brightness of Alexa A-647 dye [4]: increase the brightness
